What was measured:
Assay in all cases: relative viability (nuclei count vs DMSO), 5 days (fraction); higher = more cells survive
Afatinib + Lapatinib = compound: CN(C)C/C=C/C(=O)Nc1cc2c(Nc3ccc(F)c(Cl)c3)ncnc2cc1O[C@H]1CCOC1 [Afatinib] + CS(=O)(=O)CCNCc1ccc(-c2ccc3ncnc(Nc4ccc(OCc5cccc(F)c5)c(Cl)c4)c3c2)o1 [Lapatinib] (partner 2 µM)
Summary of the method: (§1)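 Medians of duplicate plates are given as relative viability. That measure is the nuclei count in treated wells divided by the count in vehicle wells. Counts were taken on 4× images of lung cancer cell lines in 1536-well plates, 5 days after pin-tool dosing the day after seeding with one drug alone or a fixed anchor-drug dose plus five library-drug doses (not always all listed) in √10 steps.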

Afatinib + Crizotinib = compound: CN(C)C/C=C/C(=O)Nc1cc2c(Nc3ccc(F)c(Cl)c3)ncnc2cc1O[C@H]1CCOC1 [Afatinib] + C[C@@H](Oc1cc(-c2cnn(C3CCNCC3)c2)cnc1N)c1c(Cl)ccc(F)c1Cl [Crizotinib] (partner 1 µM)
Summary of the method: as §1

Afatinib + Tozasertib = compound: CN(C)C/C=C/C(=O)Nc1cc2c(Nc3ccc(F)c(Cl)c3)ncnc2cc1O[C@H]1CCOC1 [Afatinib] + Cc1cc(Nc2cc(N3CCN(C)CC3)nc(Sc3ccc(NC(=O)C4CC4)cc3)n2)n[nH]1 [Tozasertib] (partner 0.1 µM)
Summary of the method: as §1

Afatinib + Decitabine = compound: CN(C)C/C=C/C(=O)Nc1cc2c(Nc3ccc(F)c(Cl)c3)ncnc2cc1O[C@H]1CCOC1 [Afatinib] + Nc1ncn([C@H]2C[C@H](O)[C@@H](CO)O2)c(=O)n1 [Decitabine] (partner 2 µM)
Summary of the method: as §1

Row | Cell Line | relative viability (Afatinib + Lapatinib; first compound 0.005 µM) | relative viability (Afatinib + Lapatinib; first compound 0.01581 µM) | relative viability (Afatinib + Lapatinib; first compound 0.05 µM) | relative viability (Afatinib + Lapatinib; first compound 0.1581 µM) | relative viability (Afatinib + Lapatinib; first compound 0.5 µM) | relative viability (Afatinib + Crizotinib; first compound 0.005 µM) | relative viability (Afatinib + Crizotinib; first compound 0.01581 µM) | relative viability (Afatinib + Crizotinib; first compound 0.05 µM) | relative viability (Afatinib + Crizotinib; first compound 0.1581 µM) | relative viability (Afatinib + Crizotinib; first compound 0.5 µM) | relative viability (Afatinib + Tozasertib; first compound 0.005 µM) | relative viability (Afatinib + Tozasertib; first compound 0.01581 µM) | relative viability (Afatinib + Tozasertib; first compound 0.05 µM) | relative viability (Afatinib + Tozasertib; first compound 0.1581 µM) | relative viability (Afatinib + Tozasertib; first compound 0.5 µM) | relative viability (Afatinib + Decitabine; first compound 0.005 µM) | relative viability (Afatinib + Decitabine; first compound 0.01581 µM) | relative viability (Afatinib + Decitabine; first compound 0.05 µM) | relative viability (Afatinib + Decitabine; first compound 0.1581 µM) | relative viability (Afatinib + Decitabine; first compound 0.5 µM)
1 | 201T | 1.07 | 1.04 | 0.904 | 1.01 | 1.08 | 0.981 | 0.863 | 0.959 | 0.958 | 1 | 1.01 | 0.915 | 0.948 | 0.806 | 0.827 | 0.857 | 0.867 | 0.844 | 0.78 | 0.822
2 | A-427 | 1.09 | 1.09 | 1.01 | 1.03 | 1.04 | 0.999 | 0.963 | 1.04 | 0.845 | 0.855 | 0.204 | 0.193 | 0.192 | 0.173 | 0.225 | 0.556 | 0.594 | 0.551 | 0.502 | 0.511
3 | ABC-1 | 1.15 | 1.16 | 1.32 | 0.932 | 1.05 | 1.29 | 0.98 | 1.3 | 0.885 | 1.13 | 0.172 | 0.123 | 0.177 | 0.168 | 0.165 | 1.09 |  | 1.26 | 0.928 | 1.05
4 | BEN | 0.7 | 0.694 | 0.832 | 0.705 | 0.804 | 0.929 | 0.941 | 1.02 | 0.908 | 0.916 | 0.461 | 0.512 | 0.57 | 0.475 | 0.494 | 0.727 | 0.707 | 0.666 | 0.736 | 0.919
5 | CAL-12T | 0.694 | 0.757 | 0.714 | 0.546 | 0.638 | 1.06 | 0.629 | 0.64 |  | 0.357 | 0.315 | 0.339 | 0.311 | 0.168 | 0.189 |  |  |  |  | 
6 | COR-L23 | 1.22 | 0.916 | 0.877 | 0.933 | 1.11 | 0.803 | 0.583 | 0.634 | 0.603 | 0.75 | 0.216 | 0.202 | 0.216 | 0.167 | 0.166 | 0.504 | 0.436 | 0.468 | 0.47 | 0.529
7 | COR-L 105 | 0.311 | 0.385 | 0.344 | 0.31 | 0.343 | 0.618 | 0.285 | 0.304 | 0.221 | 0.216 | 0.333 | 0.255 | 0.258 | 0.165 | 0.206 | 0.552 | 0.433 | 0.415 | 0.338 | 0.356
8 | Calu-6 | 1.15 | 1.12 | 1.08 | 1.09 | 1.12 | 0.861 | 0.654 | 0.869 | 0.8 | 0.755 |  |  |  |  |  |  |  |  |  | 
9 | ChaGo-K-1 |  |  |  |  |  | 1.27 | 1.14 | 1.17 | 1.16 | 1.17 | 0.231 | 0.239 | 0.225 | 0.215 | 0.212 | 0.558 | 0.538 | 0.525 | 0.525 | 0.469
10 | EBC-1 | 0.246 | 0.196 | 0.198 | 0.195 | 0.212 | 0.193 | 0.174 | 0.191 | 0.189 | 0.209 |  |  |  |  |  |  |  |  |  | 
11 | EKVX | 0.191 | 0.18 | 0.188 | 0.208 | 0.198 | 0.892 | 0.708 | 0.551 | 0.268 | 0.159 | 0.379 | 0.423 | 0.31 | 0.132 | 0.169 | 0.248 | 0.208 | 0.218 | 0.159 | 0.171
12 | EMC-BAC-2 | 0.888 | 0.858 | 0.892 | 0.941 | 0.91 | 0.816 | 0.731 | 0.698 | 0.693 | 0.654 | 0.315 | 0.299 | 0.342 | 0.326 | 0.309 | 0.968 | 0.924 | 0.98 | 0.901 | 1.02
13 | EPLC-272H | 0.941 | 0.826 | 0.941 | 0.863 | 0.924 | 0.698 | 0.72 | 0.842 | 0.739 | 0.575 | 0.205 | 0.427 | 0.133 | 0.164 | 0.253 | 0.355 | 0.328 | 0.359 | 0.309 | 0.348
14 | H3255 | 0.244 | 0.227 | 0.242 | 0.215 | 0.215 | 0.225 | 0.191 | 0.265 | 0.166 | 0.226 | 0.315 | 0.204 | 0.222 | 0.168 | 0.195 | 0.256 | 0.167 | 0.179 | 0.189 | 0.172
15 | HARA | 0.727 | 0.668 | 0.608 | 0.688 | 0.888 | 0.884 | 1.04 | 0.763 | 0.494 | 0.783 | 0.0895 | 0.0918 | 0.0646 | 0.0722 | 0.062 | 0.548 |  | 0.413 | 0.325 | 0.349
16 | HCC-15 | 0.84 | 0.92 | 0.859 | 0.859 | 0.82 | 0.842 | 0.904 | 0.804 | 0.837 | 0.866 | 0.49 | 0.488 | 0.422 | 0.299 | 0.406 | 0.75 | 0.622 | 0.625 | 0.594 | 0.645
17 | HCC-44 | 1.09 | 1.03 | 0.953 | 0.97 | 1.02 | 0.902 | 0.866 | 0.786 | 0.782 | 0.847 | 1.18 | 1.02 | 1 | 0.946 | 0.897 | 0.99 | 0.96 | 0.981 | 0.968 | 1.07

Reference: the supplement of paper PMC10307832
